How the values were obtained:
[1] = Fluorescence spectrum in TE buffer of dyes selected from live cell imaging; assay type: physicochemical; details: dye 10 μM in TE buffer
Protocol: (§1) The fluorescence spectra data in the primary screening and selected dyes titration assay study was obtained by Gemini XS plate reader. RNA solution was prepared right before the assay experiments to avoid possible degradation and contamination. In the primary screening, 1 mg/mL RNA (type VI from torula yeast) buffer solution was used. Point scans were carried out first using five Ex/Em point sets ([…], 400/500, 450/550, 500/600, 550/650 nm). Spectra scans were then carried out for the selected dyes. Excitation wavelengths were set at 350 nm, 400 nm, 450 nm, 500 nm, and 550 nm and the emission wavelengths were scanned. RNA (16S- and 23S-ribosomal from E. coli) and DNA (salmon testes) titration experiments and quantum yield/extinction coefficient determination for the three best dyes were carried out by the plate reader as well. Excitation λmax obtained from F-2500 Hitachi Fluorophotometer was used. Absorbance wavelength was determined by SpectraMax Plus^384 absorbance plate reader. […] was chosen as standard and 480 nm was used as excitation wavelength in the scanning for quantum yield determination.

[2] = tested on: 3T3 fibroblast cells, 3T3-L1 adipocyte cells, Hela cells and A549 human lung carcinoma cells; test: Secondary screening: live cell nuclear imaging properties in four cell lines; assay type: cell-based, mouse; details: dye 25 μM
Protocol: (§2) All cell staining imaging followed the same procedure. Generally, dyes in dry state were first dissolved in DMSO to obtain the stock solution. The stock solutions were then added directly to the cell culture wells to reach the desired concentration. Total DMSO was lower than 0.1%. After adding dyes, cells were incubated at 37° C. in 5% CO2 for 25 minutes. The medium was then removed and cells were rinsed with fresh medium twice. The cells were then imaged at ambient temperature in the medium. Exposure time was kept less than 5 seconds and adjusted to each dye.
The selected compounds from both primary screens (total 88) were resynthesized in large scale and purified. The compounds' live cell nuclear imaging properties were then tested by four cell lines, including two mouse cell lines: 3T3 fibroblast cells and 3T3-L1 adipocyte cells; and two human cancer cell lines: Hela cells and A549 human lung carcinoma cells. Herein, the final dye concentration in each test was decreased to 25 μM and all the experiments were repeated to establish reproducibility. […] Each of the three dyes contained at least one high affinity nucleic acid functional group (Trotta et al., “Solution Structure of DAPI Selectively Bound in the Minor Groove of a DNA T-T Mismatch-Containing Site: NMR and Molecular Dynamics Studies,” Nucleic Acids Res. 26:4706-4713 (1998); Loontiens et al., “Binding Characteristics of Hoechst 33258 with Calf Thymus DNA, Poly[d(A-T)], and d(CCGGAATTCCGG): Multiple Stoichiometries and Determination of Tight Binding with a Wide Spectrum of Site Affinities,” Biochem. 29:9029-9039 (1990); Zipper et al., “Investigations on DNA Intercalation and Surface Binding by SYBR Green I, Its Structure Determination and Methodological Implications,” Nucleic Acid Res. 32:E103 (2004); Glazer et al., “Stable Dye-DNA Intercalation Complexes as Reagents for High-Sensitivity Fluorescence Detection,” Nature 359:859-861 (1992), which are hereby incorporated by reference in their entirety) in building block II such as the terminal secondary amine for F22 and F112, the trimethoxy for E 144, and the indole for E36.

[3] = Fluorescent properties of free dye solution; assay type: physicochemical; details: TE buffer pH 7.5, dye 5 μM
Protocol: as §1, with “determination. […] Generally, the λmax (nm) of emission was determined by scanning a fixed excitation first, and the μmax (nm) of excitation was determined by scanning emission spectrum with a fixed μem (nm). The detailed fluorescent properties of three selected dyes including; excitation/emission μmax, the quantum yield and extinction coefficient of both free dye solution and dye-RNA solution were assessed (Table 5).” for “determination.”

[4] = tested on: RNA (16S- and 23S-ribosomal from E. coli); test: Fluorescent properties of dye-RNA solution; assay type: binding; details: TE buffer pH 7.5, dye 5 μM, RNA 200 μg/mL
Protocol: as §1, with “determination. […] Generally, the λmax (nm) of emission was determined by scanning a fixed excitation first, and the μmax (nm) of excitation was determined by scanning emission spectrum with a fixed μem (nm). The detailed fluorescent properties of three selected dyes including; excitation/emission μmax, the quantum yield and extinction coefficient of both free dye solution and dye-RNA solution were assessed (Table 5).” for “determination.”

[5] = tested on: Hela, A549, 3T3, and 3T3-L1; test: Optimization of working concentration and imaging properties, live cell staining; assay type: cell-based, human, mouse; details: 20, 10, 5 and 1 μM tested in four cell lines
Protocol: as §2
In fluorescence microscopic imaging studies, it is always desirable to use as little dye as possible to stain organelles in order to maximize specificity and minimize dye toxicity and cell death. To determine the lowest working concentration of each dye, four different concentrations (20 μM, 10 μM, 5 μM, and 1 μM) were tested in four cell lines (Hela, A549, 3T3, and 3T3-L1). Dyes E36, E144, and F112 were imaged using FITC channel, and F22 was imaged using Cy3 channel. Generally, a quality fluorescence signal for each dye was produced using a concentration of 5 μM for E36, E144, and F22 and 10 μM for F112 (Table 5). It was interesting to observe that compound F22 was brighter in 3T3 cells, and a concentration of 1 μM was sufficient for a clear image (FIG. 4). […] Little photobleaching and no obvious cell morphology or viability changes were observed during the tests.

[6] = tested on: Fixed-permeabilized Hela cells; test: DNase and RNase digest test; assay type: cell-based, human; details: dye 50 μM, 2 hours
Protocol: Cells were first fixed using cold (−4° C.) pure methanol for 1 minute at ambient temperature. The cell membrane was then permeabilized by immersion in 1% Triton X-100 for 2 minutes. After rinsing with PBS twice, 100 μL of 50 μM dye PBS solution was added to three adjacent wells. Cells were then incubated in this dye PBS solution for 15 minutes in ambient temperature before being rinsed with clean PBS twice. 100 μL clean PBS (as control experiment), 30 μg/mL DNase (Sigma), or 25 μg/mL DNase-Free RNase (GE) was added to the three adjacent wells and incubated at 37° C. in 5% CO2 for 2 hours. Cells were rinsed with clean PBS twice before imaging. For each dye test, the fluorescent images were obtained using equal exposure time for control, DNase and RNase experiments. DAPI (10 μM) in PBS and SYTO®RNASelect (5 μM) in PBS solution were used for dual staining experiments. Duplicate experiments have been tested.
To further confirm that the compounds selectively bind RNA, a deoxyribonuclease (DNase) and ribonuclease (RNase) digest test was performed. In DNase digest, only the DNAs in the cell would be hydrolyzed. By contrast, in RNase digest, only RNAs would be hydrolyzed. Fixed-permeabilized Hela cells were used in this experiment and DAPI and SYTO®RNASelect were used as control dyes (FIG. 6). […] Still, its higher RNA-selective binding in live cell might be due to the complicated in vivo live cell environment, which may preferably direct this dye to nucleoli.

[7] = tested on: RNA (Type VI from torula yeast); test: In vitro solution assay (primary screening): fluorescent emission fold change upon binding to RNA; details: dye 10 μM, RNA 500 μg/mL in TE buffer
Protocol: as §1
The screening strategy used in this study is illustrated in FIG. 2. Both in vitro RNA assays and live cell imaging methods were utilized in the primary screening of the dye library. Selective binding of the dye to RNA in solution was the primary criterion for selecting lead compounds for subsequent bioimaging studies, Herein, the library dyes' fluorescent emission intensity fold change upon binding to RNA was measured in solution. Dyes showing five-fold or higher emission changes in the presence of RNA were selected (Table 3). Note the dyes listed are identified by the building blocks I and II from Table 2. For example, A4 is the product made by reacting compound A from the list of Building block I and compound 4 from the list of Building block II.

3T3 cells = test: Phototoxicity test, MTS assay of irradiated cells; assay type: cell-based, mouse; details: dye 5 μM (Hoechst 1 μM), irradiated 5 minutes, 24 hours incubation
Protocol: Dye DMSO stock solutions were diluted by fresh medium into working concentration (5 μM). Cells were cultured in 96-well plate for 12 hours before experiments. The cell medium was exchanged with dye medium solutions. Cells were then incubated in at 37° C., in 5% CO2 for 25 minutes before being irradiated by fluorescent light using the appropriate working filter (FITC for E36 and E144; Cy3 for F22) for 5 minutes. The plates were then incubated at 37° C. in 5% CO2 The cell viability was measured by MTS assay after 5 and 24 hours following the cytotoxicity measurement procedure. Duplicated experiments have been tested.
Phototoxicity is also an important factor in evaluating applicability of new fluorescent probes for live cell imaging. […] Nevertheless, it is desirable for the new imaging probes to be as non-phototoxic as possible. To investigate the phototoxicity of the present RNA-selective compounds, cellular viability of irradiated cells using MTS assay was assessed. Cells were incubated with dyes (E36, E144, and F22) in their working concentration (5 μM), and then irradiated with the appropriate filters using the fluorescent microscope (FITC for E36 and E144; Cy3 for F22). While light exposures used for imaging experiments are generally a few seconds long at most, cells were irradiated for 5 minutes for prolonged toxicity measurement. […]

SMILES | SPECTRUM EM [1] [nm] | SPECTRUM EX [1] [nm] | further results
COc1ccc2c(ccc(/C=C/c3ccc(N(C)C)cc3[N+](=O)[O-])[n+]2C)c1 [Dye F112] | 620 | 500 | Live cell nuclear imaging properties (basis of selection) [2]: selective nucleolar targeting, high fluorescence intensity, low photobleaching, and low cellular toxicity; EM (emission λmax), Buffer [3]: 516 nm; EX (excitation λmax), Buffer [3]: 462 nm; EM (emission λmax), RNA [4]: 514 nm; EX (excitation λmax), RNA [4]: 465 nm; Optimum Concentration for live cell imaging [5]: 10 µM; Fluorescence after RNase digest ([6]; 25 μg/mL DNase-Free RNase): slight stain of the nucleus; Fluorescence after DNase digest ([6]; 30 μg/mL DNase): bright nucleolar staining remained
COc1ccc2c(ccc(C=Cc3ccc4c5c(cccc35)CC4)[n+]2C)c1 [Dye F118] | 590 | 450 | –
COc1ccc2c(ccc(C=Cc3ccc(-c4cccs4)s3)[n+]2C)c1 [Dye F119] | 610 | 500 | –
COc1ccc2c(ccc(/C=C/c3cc(I)ccc3O)[n+]2C)c1 [Dye F120] | 550 | 450 | –
COc1ccc2c(ccc(/C=C/c3cccc(Br)n3)[n+]2C)c1 [Dye F128] | 510 | 400 | –
COc1ccc2c(ccc(/C=C/c3cc(Br)ccc3OC)[n+]2C)c1 [Dye F137] | 540 | 400 | –
COc1ccc2c(ccc(C=Cc3ccccc3N(c3ccccc3)c3ccccc3)[n+]2C)c1 [Dye F138] | 460 | 350 | –
COc1ccc2c(ccc(C=Cc3ccc(C)c4ccccc34)[n+]2C)c1 [Dye F141] | 560 | 450 | –
COc1ccc2c(ccc(C=Cc3c(C)ccc4ccccc34)[n+]2C)c1 [Dye F143] | 550 | 450 | –
COC(=O)c1cc(OC)cc(OC)c1C=Cc1ccc2cc(OC)ccc2[n+]1C [Dye F145] | 540 | 400 | –
COc1ccc2c(ccc(/C=C/c3cccc(OC)c3OC(C)=O)[n+]2C)c1 [Dye F153] | 470 | 350 | –
COc1ccc2c(ccc(/C=C/c3ccc(OC)c(O)c3Cl)[n+]2C)c1 [Dye F155] | 540 | 450 | –
COc1ccc2c(ccc(C=Cc3ccc(O)c(Br)c3)[n+]2C)c1 [Dye F158] | 620 | 500 | Em(nm) [7]: 620 nm; Ex(nm) [7]: 500 nm; Fold (fluorescent emission fold changes to RNA) [7]: 7
CN1CCN(c2ccc3[nH]c(-c4ccc5[nH]c(-c6ccc(O)cc6)nc5c4)nc3c2)CC1 [Hoechst 33258] | – | – | Phototoxicity (3T3 cells): as toxic in 3T3 cells as F22

Reference: patent publication US7790896B2, “RNA-selective probes for live cell imaging of nuclear structure and function” (New York University, priority 2006, dated 2010)
